≈ marks a conversion by molar mass, not a printed value.
Key:
Type in all cases: functional
[1] = system: P388; assay: Cytotoxicity against mouse P388 cells; settings: read-out: ED50 (the source's name)
[2] = system: KB; assay: Cytotoxicity against human KB cells; settings: read-out: ED50 (the source's name)
[3] = system: P388; assay: In vivo antitumor activity against mouse P388 cells at 0.125 ug/kg/day, ip

SMILES: COc1cc([C@H]2Oc3c(OC)cc4ccc(=O)oc4c3O[C@@H]2CO)ccc1O [CLEOMISCOSIN A]
- EC50 [1]: 0.4 µg/mL (≈ 1.04 µM)
- EC50 [2]: > 10 µg/mL

SMILES: COC(=O)[C@]12OC[C@]34[C@H]([C@@H](O)[C@@H]1O)[C@@]1(C)CC(=O)C(O)=C(C)[C@@H]1C[C@H]3OC(=O)[C@H](OC(=O)C=C(C)C)[C@@H]24 [BRUSATOL]
- T/C [3]: 158%

— ChEMBL document CHEMBL1151617, “Antitumor agents, 65. Brusatol and cleomiscosin-A, antileukemic principles from Brucea javanica” (1984)
